# Article PMC6364417, “Kinase inhibitor library screening identifies synergistic drug combinations effective in sensitive and resistant melanoma cells” (Journal of Experimental & Clinical Cancer Research : CR, 2019)
# Tests used:
# Assay in all cases: Kinase inhibitor library screening, PrestoBlue cell viability, 1 or 10 μM, 72 h
# [1] = system: 501Mel-GP cells (Dabrafenib-resistant)
# [2] = system: IGR37-XP cells (Vemurafenib-resistant)
# [3] = system: 501Mel-XP cells (Vemurafenib-resistant)
# [4] = system: IGR37-GP cells (Dabrafenib-resistant)
# [5] = system: A375 cells (parental)
# [6] = system: A375-XP cells (Vemurafenib-resistant)
# [7] = system: IGR37 cells (parental)
# [8] = system: 501Mel cells (parental)
# Summary of the method: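 Sensitive parental cells and their resistant derivatives were exposed to library compounds for 72 h. Values represent viability as a percentage of untreated cells.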
# [9] = system: A375-GP cells (Dabrafenib-resistant)
Compound,"cell viability (kinase inhibitor library screening) ([1]; 501Mel GP, 1μΜ, in %)","cell viability (kinase inhibitor library screening) ([1]; 501Mel GP, 10μΜ, in %)","cell viability (kinase inhibitor library screening) ([2]; IGR37 XP, 10μΜ, in %)","cell viability (kinase inhibitor library screening) ([3]; 501Mel XP, 1μΜ, in %)","cell viability (kinase inhibitor library screening) ([3]; 501Mel XP, 10μΜ, in %)","cell viability (kinase inhibitor library screening) ([4]; IGR37 GP, 1μΜ, in %)","cell viability (kinase inhibitor library screening) ([4]; IGR37 GP, 10μΜ, in %)","cell viability (kinase inhibitor library screening) ([5]; A375 Parental, 10μΜ, in %)","cell viability (kinase inhibitor library screening) ([6]; A375 XP, 10μΜ, in %)","cell viability (kinase inhibitor library screening) ([7]; IGR37 Parental, 1μΜ, in %)","cell viability (kinase inhibitor library screening) ([7]; IGR37 Parental, 10μΜ, in %)","cell viability (kinase inhibitor library screening) ([8]; 501Mel Parental, 1μΜ, in %)","cell viability (kinase inhibitor library screening) ([8]; 501Mel Parental, 10μΜ, in %)","cell viability (kinase inhibitor library screening) ([9]; A375 GP, 1μΜ, in %)","cell viability (kinase inhibitor library screening) ([9]; A375 GP, 10μΜ, in %)","cell viability (kinase inhibitor library screening) ([2]; IGR37 XP, 1μΜ, in %)","cell viability (kinase inhibitor library screening) ([5]; A375 Parental, 1μΜ, in %)","cell viability (kinase inhibitor library screening) ([6]; A375 XP, 1μΜ, in %)",also measured
Cc1ccc(Nc2nccc(N(C)c3ccc4c(C)n(C)nc4c3)n2)cc1S(N)(=O)=O.Cl [Pazopanib HCl],95.6,65.3,65.8,88.8,48.8,83.2,61.1,71.9,75.2,96.1,84.7,99.1,86.1,98.9,71.0,–,–,–,–
CCOc1cc2ncc(C#N)c(Nc3ccc(F)c(Cl)c3)c2cc1NC(=O)/C=C/CN(C)C [Pelitinib (EKB-569)],–,–,–,–,–,–,–,–,–,–,–,–,–,–,–,–,–,–,"cell viability, 501Mel GP, 1μΜ ([1]; 501Mel GP, 1μΜ, 72 h, in %): 102.6; cell viability, 501Mel GP, 10μΜ ([1]; 501Mel GP, 10μΜ, 72 h, in %): 92.4; cell viability, IGR37 XP, 10μΜ ([2]; IGR37 XP, 10μΜ, 72 h): 77.5%; cell viability, IGR37 XP, 1μΜ ([2]; IGR37 XP, 1μΜ, 72 h, in %): 97.8; cell viability, 501Mel XP, 10μΜ ([3]; 501Mel XP, 10μΜ, 72 h, in %): 91.9; cell viability, IGR37 GP, 10μΜ ([4]; IGR37 GP, 10μΜ, 72 h): 92.3%; cell viability, IGR37 GP, 1μΜ ([4]; IGR37 GP, 1μΜ, 72 h, in %): 97.5; cell viability, A375 Parental, 1μΜ ([5]; A375 Parental, 1μΜ, 72 h, in %): 103.3; cell viability, A375 Parental, 10μΜ ([5]; A375 Parental, 10μΜ, 72 h, in %): 79.2; cell viability, A375 XP, 1μΜ ([6]; A375 XP, 1μΜ, 72 h, in %): 104.6; cell viability, A375 XP, 10μΜ ([6]; A375 XP, 10μΜ, 72 h, in %): 96.9; cell viability, IGR37 Parental, 1μΜ ([7]; IGR37 Parental, 1μΜ, 72 h, in %): 99.8; cell viability, IGR37 Parental, 10μΜ ([7]; IGR37 Parental, 10μΜ, 72 h, in %): 97.0; cell viability, 501Mel Parental, 1μΜ ([8]; 501Mel Parental, 1μΜ, 72 h, in %): 102.9; cell viability, 501Mel Parental, 10μΜ ([8]; 501Mel Parental, 10μΜ, 72 h, in %): 89.9; cell viability, A375 GP, 1μΜ ([9]; A375 GP, 1μΜ, 72 h, in %): 98.8; cell viability, A375 GP, 10μΜ ([9]; A375 GP, 10μΜ, 72 h, in %): 88.7"
Oc1cc(O)cc(/C=C/c2ccc(O)c(O)c2)c1 [Piceatannol],95.8,80.4,82.4,96.8,81.1,91.5,85.8,76.1,89.0,98.6,86.6,98.4,84.8,93.0,80.7,92.0,98.9,98.5,–
CC(C)(C)c1cc(NC(=O)Nc2ccc(-c3cn4c(n3)sc3cc(OCCN5CCOCC5)ccc34)cc2)no1 [Quizartinib (AC220)],–,–,–,–,–,–,–,–,–,–,–,–,–,–,–,–,–,–,"viability at 1 µM ([1]; Homo sapiens, 72 h, read-out: cell viability, 501Mel GP, 1μΜ): 109%; viability at 10 µM ([1]; Homo sapiens, 72 h, read-out: cell viability, 501Mel GP, 10μΜ): 93%; viability at 1 µM ([2]; Homo sapiens, IGR-37, 72 h, read-out: cell viability, IGR37 XP, 1μΜ): 43.9%; viability at 10 µM ([2]; Homo sapiens, IGR-37, 72 h, read-out: cell viability, IGR37 XP, 10μΜ): 7.2%; viability at 1 µM ([3]; Homo sapiens, 72 h, read-out: cell viability, 501Mel XP, 1μΜ): 94.6%; viability at 10 µM ([3]; Homo sapiens, 72 h, read-out: cell viability, 501Mel XP, 10μΜ): 80.5%; viability at 1 µM ([4]; Homo sapiens, IGR-37, 72 h, read-out: cell viability, IGR37 GP, 1μΜ): 67.8%; viability at 10 µM ([4]; Homo sapiens, IGR-37, 72 h, read-out: cell viability, IGR37 GP, 10μΜ): 28.8%; viability at 1 µM ([5]; Homo sapiens, A-375, 72 h, read-out: cell viability, A375 Parental, 1μΜ): 104%; viability at 10 µM ([5]; Homo sapiens, A-375, 72 h, read-out: cell viability, A375 Parental, 10μΜ): 96.3%; viability at 1 µM ([6]; Homo sapiens, A-375, 72 h, read-out: cell viability, A375 XP, 1μΜ): 108%; viability at 10 µM ([6]; Homo sapiens, A-375, 72 h, read-out: cell viability, A375 XP, 10μΜ): 96.3%; viability at 1 µM ([7]; Homo sapiens, IGR-37, 72 h, read-out: cell viability, IGR37 Parental, 1μΜ): 97.3%; viability at 10 µM ([7]; Homo sapiens, IGR-37, 72 h, read-out: cell viability, IGR37 Parental, 10μΜ): 102%; viability at 1 µM ([8]; Homo sapiens, 72 h, read-out: cell viability, 501Mel Parental, 1μΜ): 95.1%; viability at 10 µM ([8]; Homo sapiens, 72 h, read-out: cell viability, 501Mel Parental, 10μΜ): 89.6%; viability at 1 µM ([9]; Homo sapiens, A-375, 72 h, read-out: cell viability, A375 GP, 1μΜ): 99.4%; viability at 10 µM ([9]; Homo sapiens, A-375, 72 h, read-out: cell viability, A375 GP, 10μΜ): 88.8%"
COc1cc(Nc2ncc(F)c(Nc3ccc4c(n3)NC(=O)C(C)(C)O4)n2)cc(OC)c1OC [R406(free base)],93.8,48.0,20.0,77.6,29.6,84.7,45.4,50.6,63.6,97.4,86.8,–,57.6,–,44.5,92.0,100.1,103.9,–
COc1cc(Nc2ncc(F)c(Nc3ccc4c(n3)NC(=O)C(C)(C)O4)n2)cc(OC)c1OC.O=S(=O)(O)c1ccccc1 [R406],86.1,50.0,27.5,102.9,48.7,90.2,56.0,58.1,69.5,103.3,95.3,89.8,71.4,–,54.6,89.4,104.7,99.5,–
COc1cc(Nc2ncc(F)c(Nc3ccc4c(n3)N(COP(=O)(O)O)C(=O)C(C)(C)O4)n2)cc(OC)c1OC [R788 (Fostamatinib)],90.2,61.2,12.1,82.4,25.1,87.5,21.3,47.5,63.9,99.8,77.8,98.5,76.6,89.5,49.0,89.9,95.5,93.7,–
FC(F)(F)c1ccc(Nc2nc3ccc(Oc4ccnc(-c5ncc(C(F)(F)F)[nH]5)c4)cc3[nH]2)cc1 [Raf265 derivative],–,88.7,69.4,116.2,77.9,94.6,87.0,74.8,66.1,104.0,102.6,–,91.6,97.7,60.2,106.8,104.6,–,–
